Several values for one entry are separate records, joined by “and”; a condition that tells them apart may be missing. Identical values can stand only once.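 Method: 48-hour compound exposure of cells in 96-well plates, five concentrations, linear interpolation of endpoints. GI50 = concentration required for 50% inhibition of growth. The concentration for full growth arrest is given as TGI.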
Columns and labels:
Assay in all cases: NCI-60 cell line screen, 48 h
SNB-75 CNS = tested on: SNB-75 CNS
NCI-H460 lung = tested on: NCI-H460 lung
SK-MEL-5 melanoma = tested on: SK-MEL-5 melanoma
NCI-H226 lung = tested on: NCI-H226 lung
DU-145 prostate = tested on: DU-145 prostate
COLO 205 colon = tested on: COLO 205 colon
T-47D breast = tested on: T-47D breast
SR leukemia = tested on: SR leukemia
BT-549 breast = tested on: BT-549 breast
EKVX NSCLC = tested on: EKVX NSCLC
RXF 393 renal = tested on: RXF 393 renal

Cn1cc2c(=O)n3ncn(-c4ccc(Br)cc4)c3nc2n1
TGI (SNB-75 CNS): > 100 µM | TGI (NCI-H460 lung): > 100 µM | TGI (SK-MEL-5 melanoma): > 100 µM | TGI (NCI-H226 lung): > 100 µM | TGI (DU-145 prostate): > 100 µM | TGI (COLO 205 colon): > 100 µM | TGI (T-47D breast): > 100 µM | TGI (SR leukemia): > 100 µM | TGI (BT-549 breast): > 100 µM | TGI (EKVX NSCLC): > 100 µM | TGI (RXF 393 renal): > 100 µM

CC1=NN2C(=O)CC(=O)N=C2S1
TGI (SNB-75 CNS): > 100 µM | TGI (NCI-H460 lung): > 100 µM | TGI (SK-MEL-5 melanoma): > 100 µM | TGI (NCI-H226 lung): > 100 µM | TGI (DU-145 prostate): > 100 µM | TGI (COLO 205 colon): > 100 µM | TGI (T-47D breast): > 100 µM | TGI (SR leukemia): > 100 µM | TGI (BT-549 breast): > 100 µM | TGI (EKVX NSCLC): > 100 µM | TGI (RXF 393 renal): > 100 µM

CC(=O)n1nc(-c2nc3ccccc3nc2Cl)cc1Cl
TGI (SNB-75 CNS): 76.6 µM | TGI (NCI-H460 lung): > 88.2 µM | TGI (SK-MEL-5 melanoma): 16.1 µM | TGI (NCI-H226 lung): 30.8 µM | TGI (DU-145 prostate): 43.1 µM | TGI (COLO 205 colon): 33.2 µM | TGI (T-47D breast): > 100 µM | TGI (SR leukemia): 13.3 µM | TGI (BT-549 breast): 28.8 µM | TGI (EKVX NSCLC): 37.7 µM | TGI (RXF 393 renal): > 100 µM

CC1(C)[C@@H]2C[C@H]1C(Cc1ccc(C[C@H]3c4cc(-c5ccccn5)ncc4[C@H]4C[C@@H]3C4(C)C)cc1)c1cc(-c3ccccn3)ncc12 (stereo partly specified)
TGI (SNB-75 CNS): > 100 µM | TGI (NCI-H460 lung): 13.8 µM | TGI (SK-MEL-5 melanoma): 7.81 µM | TGI (DU-145 prostate): > 100 µM | TGI (COLO 205 colon): 13.7 µM | TGI (T-47D breast): > 100 µM | TGI (SR leukemia): 5.02 µM | TGI (BT-549 breast): > 100 µM | TGI (EKVX NSCLC): 15 µM | TGI (RXF 393 renal): 77.8 µM

C[C@H]1C(OCCOC2O[C@@H]3O[C@@]4(C)CC[C@H]5[C@H](C)CCC([C@H]2C)[C@@]35O4)O[C@@H]2O[C@@]3(C)CC[C@H]4[C@H](C)CCC1[C@@]24O3 (stereo partly specified)
TGI (SNB-75 CNS): 81.7 µM | TGI (NCI-H460 lung): > 100 µM | TGI (SK-MEL-5 melanoma): 32.2 µM | TGI (NCI-H226 lung): > 100 µM | TGI (DU-145 prostate): 74.3 µM | TGI (COLO 205 colon): 37.7 µM | TGI (T-47D breast): 37.5 µM | TGI (SR leukemia): > 100 µM | TGI (BT-549 breast): > 100 µM

CN(C)CCOC1(Cc2ccc(Cl)cc2Cl)CCC(C(C)(C)C)CC1 (stereo unspecified)
GI50 (SNB-75 CNS): 2.52 µM | TGI (SNB-75 CNS): 3.89 µM and 7.39 µM | TGI (NCI-H460 lung): 3.18 µM and 2.66 µM | GI50 (SK-MEL-5 melanoma): 2.05 µM | TGI (SK-MEL-5 melanoma): 3.07 µM and 3.61 µM | GI50 (NCI-H226 lung): 2.19 µM and 4.67 µM | TGI (NCI-H226 lung): 5.13 µM and 10.7 µM | GI50 (DU-145 prostate): 1.89 µM and 2.68 µM | TGI (DU-145 prostate): 5.91 µM and 6.45 µM | TGI (COLO 205 colon): 3.28 µM and 3.23 µM | GI50 (T-47D breast): 1.92 µM and 2.09 µM | TGI (T-47D breast): 4.42 µM and 4.24 µM | GI50 (SR leukemia): 1.87 µM | TGI (SR leukemia): 4.64 µM and 1.47 µM | TGI (BT-549 breast): 3.16 µM and 3.25 µM | GI50 (EKVX NSCLC): 3.04 µM and 4.01 µM | TGI (EKVX NSCLC): 8.25 µM and 9.01 µM | GI50 (RXF 393 renal): 1.68 µM | TGI (RXF 393 renal): 3.11 µM and 3.28 µM

COc1cccc(-c2cccc(SC)n2)n1
TGI (SNB-75 CNS): > 100 µM | TGI (NCI-H460 lung): > 100 µM | TGI (SK-MEL-5 melanoma): 44 µM | TGI (NCI-H226 lung): 31.6 µM | TGI (DU-145 prostate): > 100 µM | TGI (COLO 205 colon): 40.2 µM | TGI (T-47D breast): 75.1 µM | TGI (SR leukemia): 55.5 µM | TGI (BT-549 breast): > 100 µM | TGI (EKVX NSCLC): 97.3 µM | TGI (RXF 393 renal): 63 µM

N#CC1=C(C#N)/C(=C(\C#N)C(C#N)C#N)N=C1N
TGI (SNB-75 CNS): > 81.8 µM | TGI (NCI-H460 lung): > 100 µM | TGI (SK-MEL-5 melanoma): 31.8 µM | TGI (NCI-H226 lung): 97.3 µM | TGI (DU-145 prostate): > 100 µM | TGI (COLO 205 colon): 57.3 µM | TGI (T-47D breast): > 100 µM | TGI (SR leukemia): 66.7 µM | TGI (BT-549 breast): > 78.7 µM | TGI (EKVX NSCLC): > 100 µM | TGI (RXF 393 renal): > 100 µM

COC1C=C(NCC2(CO)CCC2)NC(N)=N1 (stereo unspecified)
TGI (SNB-75 CNS): > 100 µM | TGI (NCI-H460 lung): > 100 µM | TGI (SK-MEL-5 melanoma): > 100 µM | TGI (NCI-H226 lung): > 100 µM | TGI (DU-145 prostate): > 100 µM | TGI (COLO 205 colon): > 100 µM | TGI (T-47D breast): > 100 µM | TGI (SR leukemia): > 100 µM | TGI (BT-549 breast): > 100 µM | TGI (EKVX NSCLC): > 100 µM | TGI (RXF 393 renal): > 100 µM

CCC(CC)C(=O)OC[n+]1cccc(-c2c(COC(=O)NC(C)C)c(COC(=O)NC(C)C)c3n2CCC3)c1
TGI (SNB-75 CNS): > 100 µM | TGI (NCI-H460 lung): > 100 µM | TGI (SK-MEL-5 melanoma): > 100 µM | TGI (NCI-H226 lung): > 100 µM | TGI (DU-145 prostate): > 100 µM | TGI (COLO 205 colon): > 100 µM | TGI (T-47D breast): > 100 µM | TGI (SR leukemia): > 100 µM | TGI (BT-549 breast): > 100 µM | TGI (EKVX NSCLC): > 100 µM | TGI (RXF 393 renal): > 100 µM

CC(=O)O[C@H]1C(=O)[C@@]2(C)[C@H]([C@H](OC(=O)c3ccc([N+](=O)[O-])cc3)[C@]3(O)C[C@H](OC(=O)[C@H](O)[C@@H](NC(=O)c4ccccc4)c4ccccc4)C(C)=C1C3(C)C)[C@]1(OC(C)=O)CO[C@@H]1C[C@@H]2O
TGI (SNB-75 CNS): > 25 µM | TGI (NCI-H460 lung): > 25 µM | TGI (SK-MEL-5 melanoma): > 25 µM | TGI (NCI-H226 lung): > 25 µM | TGI (DU-145 prostate): > 25 µM | TGI (COLO 205 colon): > 25 µM | TGI (T-47D breast): > 25 µM | TGI (SR leukemia): > 25 µM | TGI (BT-549 breast): > 25 µM | TGI (EKVX NSCLC): > 25 µM | TGI (RXF 393 renal): > 25 µM

O=c1oc2ccccc2cc1-c1nnc(-c2ccccc2)s1
TGI (SNB-75 CNS): 45.6 µM | TGI (NCI-H460 lung): > 100 µM | TGI (SK-MEL-5 melanoma): > 100 µM | TGI (NCI-H226 lung): > 100 µM | TGI (DU-145 prostate): > 100 µM | TGI (COLO 205 colon): > 100 µM | TGI (T-47D breast): > 85.2 µM | TGI (SR leukemia): > 36.8 µM | TGI (BT-549 breast): > 100 µM | TGI (EKVX NSCLC): > 100 µM | TGI (RXF 393 renal): > 54.6 µM

CCOC(=O)C1=C(C)N(C)C(=S)NC1c1cccc(O)c1 (stereo unspecified)
TGI (SNB-75 CNS): > 100 µM | TGI (NCI-H460 lung): > 100 µM | TGI (SK-MEL-5 melanoma): > 100 µM | TGI (NCI-H226 lung): > 100 µM | TGI (DU-145 prostate): > 100 µM | TGI (COLO 205 colon): > 100 µM | TGI (T-47D breast): > 100 µM | TGI (SR leukemia): 57.3 µM | TGI (BT-549 breast): 87.9 µM | TGI (EKVX NSCLC): 93.6 µM | TGI (RXF 393 renal): 52.4 µM

CCOC(=O)c1cc(C2CCN(CC(C)CC)C2=S)c(C(=O)/C=C(/C)N)[nH]1 (stereo unspecified)
TGI (SNB-75 CNS): > 50 µM | TGI (NCI-H460 lung): > 50 µM | TGI (SK-MEL-5 melanoma): > 50 µM | TGI (NCI-H226 lung): > 50 µM | TGI (DU-145 prostate): > 50 µM | TGI (COLO 205 colon): > 50 µM | TGI (T-47D breast): > 50 µM | TGI (SR leukemia): > 50 µM | TGI (BT-549 breast): > 50 µM | TGI (EKVX NSCLC): > 50 µM | TGI (RXF 393 renal): > 50 µM

Cc1ccc(S(=O)(=O)NC(=O)NCC(=O)NCC(=O)O)cc1
TGI (SNB-75 CNS): > 100 µM | TGI (NCI-H460 lung): > 100 µM | TGI (SK-MEL-5 melanoma): > 100 µM | TGI (NCI-H226 lung): > 100 µM | TGI (DU-145 prostate): > 100 µM | TGI (COLO 205 colon): > 100 µM | TGI (T-47D breast): > 100 µM | TGI (SR leukemia): > 100 µM | TGI (BT-549 breast): > 100 µM | TGI (EKVX NSCLC): > 100 µM | TGI (RXF 393 renal): > 100 µM

CC(NC(=O)/C(C#N)=C/c1ccc2[nH]ccc2c1)c1ccccc1 (stereo unspecified)
TGI (SNB-75 CNS): 60.5 µM | TGI (NCI-H460 lung): 34.9 µM | TGI (SK-MEL-5 melanoma): 33 µM | TGI (NCI-H226 lung): 53.8 µM | TGI (DU-145 prostate): 39.8 µM | TGI (COLO 205 colon): 30.7 µM | TGI (T-47D breast): 51 µM | TGI (SR leukemia): 83.7 µM | TGI (BT-549 breast): 23.5 µM | TGI (EKVX NSCLC): 50.4 µM | TGI (RXF 393 renal): 34.5 µM

From PubChem BioAssay (NCI)
